Measurements reported in US8101389B2, “Bacterial glutamine synthetases and methods of use” (Athenix Corp, priority 2006, dated 2012).

Assays:
[1] = tested on: E. coli DH5α cells with TKH3; experiment: growth of DH5α with TKH3 on M63 minimal plates with glufosinate; assay type: cell-based; conditions: 20 mM glufosinate
Protocol: To obtain the gene(s) responsible for the strain's resistance to glufosinate, a small insert plasmid genomic library was prepared from strain ATX 20345. Genomic DNA was extracted from a fresh, overnight LB culture using SDS, proteinase K cell lysis followed by CTAB/NaCl, phenol-chloroform extractions. Partial digests were performed on the genomic DNA using 0.1 units Sau3A I at 37° C. for 30 minutes followed by the addition of EDTA and incubation at 65° C. for 20 minutes to halt the reaction. Resultant DNA was approximately 4-12 kb in size. The DNA was gel purified, treated with T4 polynucletide kinase, then ligated into BamH I digested pUC18 vector. Ligations were transformed into DH5a and plated directly on M63 minimal media plates containing 20 mM glufosinate, 100 μg/ml carbenicillin, and 0.1 mM IPTG. After several days, 4 colonies had appeared, tentatively named TKH1-4. They were grown up and plasmid DNA was isolated and analyzed by digestion with EcoR I+ Hind III, and Pst I/Sac Ito compare inserts. Though all four clones contained inserts, TKH2 and TKH3 were identical by restriction digest analysis, and both contained inserts of approximately 4.9 kb.
To reconfirm that TKH2 and TKH3 confer resistance to 20 mM glufosinate, the purified plasmids were retransformed into DH5α cells. pUC18 was retransformed as a negative control. […]

[2] = tested on: E. coli cells with AGS1 variant AGS1m17, F81S, P185S, H212T, V214A, G218S, I303N, SEQ ID NO:34; experiment: growth of E. coli on glufosinate plates, ags1m17; assay type: cell-based
Protocol: Clones expressing AGS1m17, AGS1m18, AGS1m19, or AGS1m20 were all found to be able to grow on plates containing 375 mM glufosinate, whereas no growth of clones expressing AGS1m16 was observed on plates containing 375 mM glufosinate.

CP(=O)(O)CCC(N)C(=O)O (centres unmarked) [glufosinate]
growth in the presence of glufosinate [1]: grew in the presence of glufosinate
growth on plates containing 375 mM glufosinate [2]: able to grow
